Measurements taken from US11471442B2, “Administration of gut-selective JAK3 inhibitor” (THERAVANCE BIOPHARMA R&D IP, LLC, priority 2020, dated 2022).
Read-outs that look alike come from different tables or passages of the source.

Columns and labels:
[1] = Phase 1 SAD (Part A) plasma and urine pharmacokinetics in healthy subjects; type: in vivo, human; conditions: for AUC(0-inf) / Cmax / Tmax / half-life: human, plasma; for Tmax: read-out: Tmax, median (min, max); for half-life: read-out: t1/2, mean (SD) (converted)
Protocol: (§1) The plasma PK parameters of the compound of formula (I) calculated following single (Part A) or multiple (Parts B) oral doses.
In each cohort, healthy subjects meeting eligibility criteria were sequentially randomized in a 3:1 ratio to receive either the compound of formula (I) or matching placebo. Study drug was administered orally as a single dose on the morning of Day 1 following an overnight fast of at least 9.5 hours. Subjects were dosed in an upright (i.e., seated or standing) position and remained upright for 5 minutes following dosing prior to performing study procedures which require a posture change. Subjects were to remain fasted, except water, until after the 4-hour post-dose assessments were completed and the 4-hour post dose PK sample was collected. PK sampling for the compound of formula (I) in plasma and urine were taken Day 1 pre-dose and for 72 hours post-dose.
(§2) For all subjects, blood samples for the determination of plasma concentration of the compound of formula (I) were collected at scheduled time points. Blood samples were analyzed to calculate different plasma PK parameters in both part A and part B.
Urine samples for the determination of concentration of the compound of formula (I) were collected at various posedose intervals only in part A.
(§3) For all PK data analyses, the PK analysis set was used. Individual subject and mean plasma drug concentration versus time curves for the compound of formula (I) were presented for each dose group. Summary statistics (mean, standard deviation, coefficient of variation, median, minimum, maximum, geometric mean, geometric coefficient of variation, number of subjects) were calculated for plasma concentrations at each time point for each dose group, and the PK parameters for each dose group. Urine PK parameters were summarized for exploratory purposes.

[2] = molecular target: T1, JAK3 (Homo sapiens, UniProt P52333); experiment: Protein-adjusted JAK3 IC50 (reference value, data on file); type: cell-based
T1 sequence (P52333 1-1124): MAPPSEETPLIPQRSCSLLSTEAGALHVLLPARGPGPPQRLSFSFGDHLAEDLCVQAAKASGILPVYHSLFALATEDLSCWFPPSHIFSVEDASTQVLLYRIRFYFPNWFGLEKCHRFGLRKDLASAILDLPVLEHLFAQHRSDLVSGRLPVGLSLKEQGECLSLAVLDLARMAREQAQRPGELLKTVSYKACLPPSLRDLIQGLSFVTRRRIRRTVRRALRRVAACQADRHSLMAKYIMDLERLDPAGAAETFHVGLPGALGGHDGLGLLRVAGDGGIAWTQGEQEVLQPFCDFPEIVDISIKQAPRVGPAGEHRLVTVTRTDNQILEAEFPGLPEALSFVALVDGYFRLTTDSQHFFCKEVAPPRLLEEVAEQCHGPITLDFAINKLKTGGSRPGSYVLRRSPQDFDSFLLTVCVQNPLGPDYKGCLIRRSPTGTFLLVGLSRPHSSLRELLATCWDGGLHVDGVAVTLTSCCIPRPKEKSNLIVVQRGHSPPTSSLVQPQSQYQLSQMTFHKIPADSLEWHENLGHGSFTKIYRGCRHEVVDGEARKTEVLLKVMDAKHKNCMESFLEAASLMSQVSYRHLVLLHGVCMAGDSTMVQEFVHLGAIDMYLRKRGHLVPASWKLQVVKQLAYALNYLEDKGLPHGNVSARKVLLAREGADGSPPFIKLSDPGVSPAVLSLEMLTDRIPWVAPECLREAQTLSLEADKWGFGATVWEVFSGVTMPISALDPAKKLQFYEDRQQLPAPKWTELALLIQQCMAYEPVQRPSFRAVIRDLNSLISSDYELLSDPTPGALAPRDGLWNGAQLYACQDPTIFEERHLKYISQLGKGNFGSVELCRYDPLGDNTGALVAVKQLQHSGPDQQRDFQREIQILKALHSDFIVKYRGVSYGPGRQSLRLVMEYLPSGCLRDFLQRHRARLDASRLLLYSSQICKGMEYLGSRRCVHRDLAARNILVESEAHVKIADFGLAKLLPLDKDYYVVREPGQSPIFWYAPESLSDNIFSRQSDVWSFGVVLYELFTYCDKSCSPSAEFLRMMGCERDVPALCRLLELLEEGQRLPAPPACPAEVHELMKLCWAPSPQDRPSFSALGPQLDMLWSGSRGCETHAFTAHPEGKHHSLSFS
Source text: In FIG. 11B, gray box indicates day 1 of MAD portion. Symbols and error bars represent the arithmetic mean plus SD, and reference IC50 values shown are from data on file. BID, twice daily; HuPBMC, human peripheral blood mononuclear cell; IC50, concentration producing 50% of maximal inhibition.

[3] = Phase 1 pharmacokinetics across all SAD and MAD cohorts; type: in vivo; conditions: human, plasma, oral
Protocol: as §1, §2, §3

[4] = single oral dose 1000 mg, n = 6
[5] = single oral dose 2000 mg, n = 6

- dose proportionality of exposure (AUC and Cmax) ([1]; across the studied single-dose range): slightly less than dose proportional
- Urinary excretion, average ([1]; all single-dose levels): < 0.1%
- AUC(0-inf) ([1]; both sexes, oral, part A (SAD), 100 to 2000 mg, read-out: AUC0-inf in the plasma of the subjects (range)): 2.7 to 172 ng·h/mL
- AUC(0-inf) ([1]; both sexes, oral, part A (SAD), 100 to 2000 mg, read-out: average AUC0-inf): 8.38 to 96 ng·h/mL
- Cmax ([1]; both sexes, oral, single dose of 2000 mg, read-out: average Cmax): 10 ng/mL
- AUC(0-inf) ([1]; po, 100 mg, single oral dose 100 mg, n = 6, read-out: AUCinf, mean (SD)): 8.4 ng·h/mL
- AUC(0-inf) ([1]; po, 300 mg, single oral dose 300 mg, n = 6, read-out: AUCinf, mean (SD)): 24.6 ng·h/mL
- AUC(0-inf) ([1]; po, 1000 mg, single oral dose 1000 mg, one subject excluded, read-out: AUCinf, mean (SD)): 47 ng·h/mL
- AUC(0-inf) ([1]; po, 2000 mg, single oral dose 2000 mg, n = 6, read-out: AUCinf, mean (SD)): 96 ng·h/mL
- Cmax ([1]; single oral dose 100 mg, n = 6, read-out: Cmax, mean (SD)): 1.3 ng/mL
- Tmax ([1]; single oral dose 100 mg, n = 6): 1 h
- half-life ([1]; single oral dose 100 mg, n = 6): 1050 min
- Cmax ([1]; single oral dose 300 mg, n = 6, read-out: Cmax, mean (SD)): 3.4 ng/mL
- Tmax ([1]; single oral dose 300 mg, n = 6): 1 h
- half-life ([1]; single oral dose 300 mg, n = 6): 870 min
- Cmax ([1]; single oral dose 1000 mg, n = 6, read-out: Cmax, mean (SD)): 4.8 ng/mL
- Tmax [1, 4]: 1 h
- half-life ([1]; single oral dose 1000 mg, one subject excluded): 996 min
- Cmax ([1]; single oral dose 2000 mg, n = 6, read-out: Cmax, mean (SD)): 10.1 ng/mL
- Tmax [1, 5]: 2 h
- half-life [1, 5]: 996 min
- Plasma concentrations ([1]; single oral doses up to 2000 mg): < 35 ng/mL
- fe0-72 (percentage of dose excreted in urine over 0 to 72 hours), mean (SD) ([1]; single oral dose 100 mg, n = 6): 0.10 (0.051) %
- fe0-72 (percentage of dose excreted in urine over 0 to 72 hours), mean (SD) ([1]; single oral dose 300 mg, n = 6): 0.082 (0.025) %
- fe0-72 (percentage of dose excreted in urine over 0 to 72 hours), mean (SD) [1, 4]: 0.056 (0.025) %
- fe0-72 (percentage of dose excreted in urine over 0 to 72 hours), mean (SD) [1, 5]: 0.063 (0.028) %
- IC50 [2]: 369 nM
- half-life ([3]; across all doses in the SAD and MAD cohorts, read-out: mean terminal elimination half-life): 900 to 1200 min
- Cmax ([3]; across all doses, read-out: highest observed Cmax): 34.3 ng/mL
Structure (SMILES): CN(C)C/C=C/C(=O)N1CC(COc2cc(-c3ccc(O)cc3)cc3[nH]ncc23)C1 [compound of formula (I)]
